Measured values as given in DBAASP.
Values after ≈ are worked out from the molar mass of the structure shown. Values joined by “and” are separate entries in the source; they are usually repeats but may differ in a detail not shown here. Equal entries are not always repeated.

Tests used:
Experiment in all cases: ≥ marks a high value that may be exact or a test limit, other limits are often not marked, values filed in µg/mL are converted to µM
Staphylococcus aureus = tested on: Staphylococcus aureus
[1] = tested on: Bacillus subtilis ATCC 9466
Escherichia coli HB101 = tested on: Escherichia coli HB101
[2] = tested on: Staphylococcus aureus ATCC 6538P
[3] = tested on: Staphylococcus aureus Cowan 1
Pseudomonas aeruginosa = tested on: Pseudomonas aeruginosa
Candida albicans = tested on: Candida albicans
[4] = tested on: Stenotrophomonas maltophilia FC
[5] = tested on: Pseudomonas aeruginosa ATCC 15442
[6] = tested on: Burkholderia cepacia 6/06
[7] = tested on: Pseudomonas aeruginosa ATCC 27853
[8] = tested on: Staphylococcus aureus ATCC 29213
[9] = tested on: Escherichia coli ATCC 25922
[10] = tested on: Staphylococcus aureus ATCC 43300
[11] = tested on: Staphylococcus epidermidis ATCC 12228
[12] = tested on: Staphylococcus aureus ATCC 33591
[13] = tested on: Klebsiella pneumoniae ATCC 13883
[14] = tested on: Salmonella enterica subsp. enterica serovar Choleraesuis ATCC 10708
[15] = tested on: Acinetobacter baumannii ATCC 19606
[16] = tested on: Listeria monocytogenes DSM 20600
[17] = tested on: Staphylococcus aureus DSM 2569
[18] = tested on: Listeria fleischmannii DSM 24998
[19] = tested on: Micrococcus luteus DSM 20030
[20] = tested on: Enterococcus faecalis ATCC 29212
Escherichia coli UB1005 = tested on: Escherichia coli UB1005
[21] = tested on: Pseudomonas aeruginosa PAO1
[22] = tested on: Salmonella typhimurium ATCC 7731
[23] = tested on: Bacillus subtilis CMCC 63501
[24] = tested on: Salmonella enterica subsp. enterica serovar Typhimurium ATCC 14028
[25] = tested on: Candida albicans ATCC 18804
[26] = tested on: Staphylococcus aureus ATCC 25923
Escherichia coli = tested on: Escherichia coli
[27] = tested on: Pseudomonas aeruginosa H188
[28] = tested on: Escherichia coli DH5alpha
[29] = tested on: Vibrio alginolyticus ATCC 17749
[30] = tested on: Aeromonas hydrophila ATCC 7966
[31] = tested on: Staphylococcus aureus ATCC 6538
[32] = tested on: Vibrio anguillarum ATCC 19264
[33] = tested on: Vibrio parahaemolyticus ATCC 33847
[34] = tested on: Listeria monocytogenes ATCC 19115
[35] = tested on: Streptococcus pneumoniae ATCC 49619
[36] = tested on: Mycobacterium tuberculosis H37Rv

Compound `CSCC[C@H](NC(=O)[C@@H](NC(=O)CNC(=O)[C@H](CC(C)C)NC(=O)[C@H](CCCCN)NC(=O)[C@H](CCCCN)NC(=O)[C@H](CC(C)C)NC(=O)[C@H](CCSC)NC(=O)[C@@H](NC(=O)[C@H](CCCCN)NC(=O)[C@H](Cc1cnc[nH]1)NC(=O)[C@H](CC(C)C)NC(=O)[C@H](C)N)[C@@H](C)O)[C@@H](C)O)C(=O)N[C@@H](C)C(=O)N[C@@H](CC(C)C)C(N)=O` [ALHKTMLKKLGTMAL] has an MIC (Staphylococcus aureus) of over 45 µM, an MIC [1] of at least 45 µM and an MIC (Escherichia coli HB101) of at least 44.9 µM. It also gave an MIC [2] of at least 45 µM, an MIC [3] of at least 44.9 µM and an MIC (Pseudomonas aeruginosa) of over 45 µM. It also gave an MIC (Candida albicans) of over 45 µM, an MIC [4] of at least 45 µM and an MIC [5] of at least 45 µM. It also gave an MIC [6] of at least 45 µM.

`CC[C@H](C)[C@H](NC(=O)[C@H](C)NC(=O)[C@H](CO)NC(=O)[C@@H]1CCCN1C(=O)[C@@H](NC(=O)[C@H](CC(C)C)NC(=O)[C@H](CO)NC(=O)[C@H](Cc1ccccc1)NC(=O)[C@H](CC(C)C)NC(=O)[C@@H](N)Cc1ccccc1)[C@@H](C)CC)C(=O)NCC(=O)NCC(=O)N[C@@H](CC(C)C)C(=O)N[C@H](C(=O)N[C@@H](CO)C(=O)N[C@@H](C)C(=O)N[C@@H](Cc1ccccc1)C(=O)N[C@@H](CCCCN)C(=O)O)[C@@H](C)CC` [FLFSLIPSAIGGLISAFK] showed an MIC [7] of 40 µM (≈ 75.3 µg/mL), an MIC [8] of 5 µM (≈ 9.41 µg/mL) and an MIC [9] of 50 µM (≈ 94.1 µg/mL). For the same compound, the MIC [10] was 5 µM (≈ 9.41 µg/mL), the MIC [11] was 7.5 µM (≈ 14.1 µg/mL) and the MIC [12] was 5 µM (≈ 9.41 µg/mL). The MIC [13] was at least 60 µM, the MIC [14] was at least 60 µM and the MIC [15] was 20 µM (≈ 37.6 µg/mL).

`CC[C@H](C)[C@H](NC(=O)CNC(=O)[C@H](CC(N)=O)NC(=O)[C@H](Cc1c[nH]c2ccccc12)NC(=O)[C@@H](NC(=O)[C@@H](NC(=O)[C@H](CO)NC(=O)[C@H](CC(C)C)NC(=O)[C@@H](N)Cc1ccccc1)[C@@H](C)O)[C@@H](C)CC)C(=O)N[C@@H](CCCCN)C(=O)N[C@@H](CO)C(=O)N[C@@H](CC(C)C)C(=O)N[C@@H](Cc1ccccc1)C(N)=O` [FLSTIWNGIKSLF] gave an MIC [16] of 15 µM (≈ 22.9 µg/mL), an MIC [17] of 8 µM (≈ 12.2 µg/mL) and an MIC [18] of 15 µM (≈ 22.9 µg/mL). The MIC [19] was 4 µM (≈ 6.1 µg/mL).

With `CC[C@H](C)[C@H](NC(=O)[C@H](CCCCN)NC(=O)[C@H](CCCCN)NC(=O)[C@H](Cc1ccccc1)NC(=O)[C@H](CC(C)C)NC(=O)[C@H](CCCCN)NC(=O)[C@H](Cc1c[nH]c2ccccc12)NC(=O)[C@H](CCCCN)NC(=O)[C@@H](NC(=O)[C@H](CCCN=C(N)N)NC(=O)[C@@H](NC(=O)[C@H](CCCN=C(N)N)NC(=O)[C@@H](NC(=O)[C@H](CCCN=C(N)N)NC(=O)[C@@H](N)Cc1ccccc1)[C@@H](C)CC)C(C)C)C(C)C)C(N)=O` [FRIRVRVKWKLFKKI] the MIC [20] was 1 µM (≈ 2.02 µg/mL), the MIC (Escherichia coli UB1005) was 2 µM (≈ 4.03 µg/mL) and the MIC [21] was 2 µM (≈ 4.03 µg/mL). The MIC [22] was 4 µM (≈ 8.07 µg/mL), the MIC [7] was 2 µM (≈ 4.03 µg/mL) and the MIC [8] was 2 µM and 4 µM. For the same compound, the MIC [9] was 2 µM and 4 µM, the MIC [11] was 0.5 µM (≈ 1.01 µg/mL) and the MIC [23] was 1 µM (≈ 2.02 µg/mL). The MIC [24] was 4 µM (≈ 8.07 µg/mL).

In the case of `CC(C)C[C@H](NC(=O)[C@H](Cc1cnc[nH]1)NC(=O)[C@H](Cc1ccc(O)cc1)NC(=O)[C@H](CCCN=C(N)N)NC(=O)[C@H](Cc1ccc(O)cc1)NC(=O)[C@H](CCCCN)NC(=O)[C@@H](N)CCCCN)C(=O)N[C@@H](CCCCN)C(=O)N1CCC[C@H]1C(=O)N[C@@H](Cc1ccccc1)C(=O)N[C@@H](CO)C(=O)N[C@@H](CCCCN)C(=O)N[C@@H](CCCCN)C(N)=O` [KKYRYHLKPFSKK], the MIC [9] is reported as 128 µM (≈ 220 µg/mL), the MIC [25] is reported as at least 128 µM and the MIC [26] is reported as over 128 µM.

With `CC[C@H](C)[C@H](NC(=O)[C@H](C)NC(=O)[C@H](CCCCN)NC(=O)[C@H](CC(C)C)NC(=O)[C@H](C)NC(=O)[C@@H](NC(=O)[C@H](Cc1cnc[nH]1)NC(=O)[C@H](CC(C)C)NC(=O)[C@H](C)NC(=O)[C@@H](NC(=O)[C@H](CCCCN)NC(=O)[C@H](CCCCN)NC(=O)[C@H](C)NC(=O)[C@H](CO)NC(=O)[C@H](CCCCN)NC(=O)[C@H](Cc1ccccc1)NC(=O)[C@@H](NC(=O)[C@H](CCCCN)NC(=O)[C@H](CC(C)C)NC(=O)[C@H](Cc1ccccc1)NC(=O)[C@H](CO)NC(=O)[C@H](CCCCN)NC(=O)[C@H](Cc1c[nH]c2ccccc12)NC(=O)[C@H](CCCCN)NC(C)=O)[C@@H](C)O)[C@@H](C)O)[C@@H](C)O)C(=O)N[C@@H](CO)C(=O)N[C@@H](CO)C(N)=O` [KWKSFLKTFKSAKKTALHTALKAISS] the MIC (Escherichia coli) was 0.342 µM (≈ 1.01 µg/mL), the MIC [7] was 1.37 µM (≈ 4.06 µg/mL) and the MIC [27] was 1.37 µM (≈ 4.06 µg/mL). It also gave an MIC [9] of 0.685 µM (≈ 2.03 µg/mL) and an MIC [28] of 1.37 µM (≈ 4.06 µg/mL).

In the case of `CC(C)C[C@H](N)C(=O)NCC(=O)NCC(=O)N[C@@H](CC(=O)O)C(=O)N[C@@H](CC(N)=O)C(=O)N[C@@H](Cc1ccc(O)cc1)C(=O)NCC(=O)N[C@H](C(=O)N[C@@H](Cc1ccccc1)C(=O)N[C@@H](CO)C(=O)NCC(=O)N[C@@H](CO)C(=O)N[C@@H](CC(N)=O)C(=O)NCC(=O)N[C@@H](CC(N)=O)C(=O)N[C@@H](CC(N)=O)C(=O)N[C@@H](Cc1ccccc1)C(=O)N[C@@H](CCC(N)=O)C(=O)N[C@@H](Cc1cnc[nH]1)C(=O)NCC(=O)N[C@@H](CO)C(=O)N[C@@H](CC(N)=O)C(=O)O)[C@@H](C)O` [LGGDNYGTFSGSNGNNFQHGSN], the MIC [29] is reported as at least 44.6 µM, the MIC [30] is reported as at least 44.6 µM and the MIC [31] is reported as 2.78 µM (≈ 6.25 µg/mL). It also gave an MIC [32] of at least 44.6 µM, an MIC [33] of 22.3 µM (≈ 50 µg/mL) and an MIC [34] of 1.39 µM (≈ 3.13 µg/mL).

Work on `C[C@@H](O)[C@H](N)C(=O)N[C@@H](CCCCN)C(=O)N1CCC[C@H]1C(=O)N[C@@H](CCCCN)C(=O)NCC(=O)N[C@H](C(=O)N[C@@H](CCCCN)C(=O)N1CCC[C@H]1C(=O)N[C@@H](CCCCN)C(=O)NCC(=O)N[C@H](C(=O)N[C@@H](CCCCN)C(=O)N1CCC[C@H]1C(=O)N[C@@H](CCCCN)C(=O)NCC(=O)N[C@H](C(=O)N[C@@H](CCCCN)C(=O)N1CCC[C@H]1C(=O)N[C@@H](CCCCN)C(=O)NCC(N)=O)[C@@H](C)O)[C@@H](C)O)[C@@H](C)O` [TKPKGTKPKGTKPKGTKPKG] yielded an MIC [35] of at least 300 µM and an MIC [36] of at least 300 µM.
